For 30 compounds, EC30 results are on record in patent US10758534B2 (Vertex Pharmaceuticals Incorporated, priority 2014, dated 2020).

This assay has as its target T1, F508del (Homo sapiens, UniProt P13569, DEL508-508).
T1 construct: expressed in transfected cells
The experiment in a line: Protocol 2: FRET membrane potential optical assay (VIPR), identification of correction compounds. It counts as cell-based. The gist of the method:
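FRET read-out (CC2-DMPE donor, DiSBAC2(3) voltage-sensitive acceptor) of membrane depolarization on VIPR II. Corrector candidates incubated 16 hrs at 37° C. with NIH3T3 cells expressing F508del; temperature correction at 27° C. as positive control; stimulation by 10 μM forskolin, 20 μM genistein, chloride-free gluconate bath.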

Setting [1] is: Table 3, compounds of Table 1 as modulators of CFTR activity, protocol not stated.
The mark [2] stands for this setting: F508del CFTR modulator activity, compounds of Table 1, read-out: EC30.

Where two headings read alike, the source gives them in different places.

T1 sequence (P13569 with tags, fused parts or gaps DEL508-508): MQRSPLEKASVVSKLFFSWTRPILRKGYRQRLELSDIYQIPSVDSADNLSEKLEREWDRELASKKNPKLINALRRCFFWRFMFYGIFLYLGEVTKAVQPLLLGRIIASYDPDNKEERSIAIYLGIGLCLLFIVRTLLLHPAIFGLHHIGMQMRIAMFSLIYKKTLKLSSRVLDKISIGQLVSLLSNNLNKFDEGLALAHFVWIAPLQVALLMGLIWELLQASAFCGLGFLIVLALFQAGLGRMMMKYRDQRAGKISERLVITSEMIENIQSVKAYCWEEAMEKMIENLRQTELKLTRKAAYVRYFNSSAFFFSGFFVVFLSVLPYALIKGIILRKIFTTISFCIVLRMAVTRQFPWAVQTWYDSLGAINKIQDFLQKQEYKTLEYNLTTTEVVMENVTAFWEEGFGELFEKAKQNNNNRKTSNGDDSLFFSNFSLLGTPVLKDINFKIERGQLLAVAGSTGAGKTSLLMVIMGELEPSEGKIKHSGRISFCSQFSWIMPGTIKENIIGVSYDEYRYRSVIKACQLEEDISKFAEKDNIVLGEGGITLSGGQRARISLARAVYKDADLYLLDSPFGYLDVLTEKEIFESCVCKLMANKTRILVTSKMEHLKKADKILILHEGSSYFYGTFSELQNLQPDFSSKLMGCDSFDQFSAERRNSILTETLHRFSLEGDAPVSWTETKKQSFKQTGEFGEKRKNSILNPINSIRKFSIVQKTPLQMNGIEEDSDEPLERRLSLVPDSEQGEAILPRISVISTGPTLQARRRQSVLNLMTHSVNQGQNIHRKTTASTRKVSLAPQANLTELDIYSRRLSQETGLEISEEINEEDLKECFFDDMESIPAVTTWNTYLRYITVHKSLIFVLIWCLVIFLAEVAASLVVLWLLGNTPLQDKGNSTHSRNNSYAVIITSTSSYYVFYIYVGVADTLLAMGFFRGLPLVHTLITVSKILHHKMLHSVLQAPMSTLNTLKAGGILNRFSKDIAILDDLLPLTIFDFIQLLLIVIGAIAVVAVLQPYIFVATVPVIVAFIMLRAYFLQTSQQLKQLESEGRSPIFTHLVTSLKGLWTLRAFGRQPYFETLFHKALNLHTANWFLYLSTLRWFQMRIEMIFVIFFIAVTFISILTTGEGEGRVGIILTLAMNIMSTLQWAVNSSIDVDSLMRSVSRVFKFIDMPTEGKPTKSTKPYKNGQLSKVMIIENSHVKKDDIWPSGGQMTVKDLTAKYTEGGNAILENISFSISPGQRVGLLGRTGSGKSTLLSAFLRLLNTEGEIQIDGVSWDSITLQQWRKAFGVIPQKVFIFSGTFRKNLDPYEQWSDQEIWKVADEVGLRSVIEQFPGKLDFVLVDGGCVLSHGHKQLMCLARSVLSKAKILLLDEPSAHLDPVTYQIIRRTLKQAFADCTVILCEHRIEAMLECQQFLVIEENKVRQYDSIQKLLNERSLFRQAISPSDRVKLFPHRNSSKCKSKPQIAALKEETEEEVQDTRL

In the case of `CCOc1ccc(-c2ccc(C(=O)NS(=O)(=O)c3cccc(N)n3)c(Oc3c(C)cc(C)cc3C)n2)c(F)c1` [Compound 602, N-[(6-amino-2-pyridyl)sulfonyl]-6-(4-ethoxy-2-fluoro-phenyl)-2-(2,4,6-trimethylphenoxy)pyridine-3-carboxamide], the EC30 entry under setting [1] was “+++ (“+++” means <3 uM)”.

As for `CC(C)(C)c1cc(C(=O)NS(=O)(=O)c2ccccc2)n(Cc2c(Cl)cc(Cl)cc2Cl)n1` [Compound 145, N-(benzenesulfonyl)-5-tert-butyl-2-[(2,4,6-trichlorophenyl)methyl]pyrazole-3-carboxamide], the EC30 result under setting [1] is given as “+++ (“+++” means <3 uM)”.

`Cc1nc(-c2cccc(Oc3cccc(S(=O)(=O)NC(=O)c4cccnc4N4CC(C)CC4(C)C)n3)c2)no1` (stereo not drawn) [Compound 2263, N—[[6-[3-(5-methyl-1,2,4-oxadiazol-3-yl)phenoxy]-2-pyridyl]sulfonyl]-2-(2,2,4-trimethylpyrrolidin-1-yl)pyridine-3-carboxamide]: under setting [2], the 30% effect concentration (EC30) is below 3 µM.

Consider `COc1ccc2c(c1)cc(C(=O)NS(=O)(=O)c1ccccc1)n2Cc1c(C)cc(C)cc1C` [Compound 241, N-(benzenesulfonyl)-5-methoxy-1-[(2,4,6-trimethylphenyl)methyl]indole-2-carboxamide], for which, under setting [1], the EC30 result is “+++ (“+++” means <3 uM)”.

As for `COc1ccc(S(=O)(=O)NC(=O)c2ccc(-c3ccc(OC(C)C)nc3)nc2N2C[C@@H](C)CC2(C)C)c(N)n1` [Compound 2688], the EC30 under setting [2] is below 3 µM.

For `C[C@@H]1CN(c2nc(-n3ccc(-c4ccccn4)n3)ccc2C(=O)NS(=O)(=O)C2CC2)C(C)(C)C1` [Compound 2711], the EC30 under setting [2] lay in the range of 3 to 10 µM.

Take `CC1CN(c2ncccc2C(=O)NS(=O)(=O)c2cccc(OCC3CC=CCC3C)n2)C(C)(C)C1` (stereo not drawn) [Compound 2001, N—[[6-[(6-methylcyclohex-3-en-1-yl)methoxy]-2-pyridyl]sulfonyl]-2-(2,2,4-trimethylpyrrolidin-1-yl)pyridine-3-carboxamide]: the EC30 under setting [2] was below 3 µM.

Take `CC(C)COc1cc(F)cc(-c2ccc(C(=O)NS(=O)(=O)c3cccc(N)n3)c(N(C)CC3CCCCC3)n2)c1` [Compound 2289, N-[(6-amino-2-pyridyl)sulfonyl]-2-[cyclohexylmethyl(methyl)amino]-6-(3-fluoro-5-isobutoxy-phenyl)pyridine-3-carboxamide]: the EC30 under setting [2] is below 3 µM.

`CCC(CC)N1CCN(c2cccc(S(=O)(=O)NC(=O)c3cccnc3N3CC(C)CC3(C)C)n2)CC1` (stereo not drawn) [Compound 2565, N—[[6-[4-(1-ethylpropyl)piperazin-1-yl]-2-pyridyl]sulfonyl]-2-(2,2,4-trimethylpyrrolidin-1-yl)pyridine-3-carboxamide]: the EC30 under setting [2] lay within 3 to 10 µM.

On to `CC(C)COc1cc(F)cc(-c2ccc(C(=O)NS(=O)(=O)c3ccn[nH]3)c(N3CCC[C@H]3c3ccccc3)n2)c1` [Compound 716, 6-(3-fluoro-5-isobutoxy-phenyl)-2-[(2S)-2-phenylpyrrolidin-1-yl]-N-(1H-pyrazol-5-ylsulfonyl)pyridine-3-carboxamide], for which the concentration for an effect of 30% (EC30) entry under setting [1] is “+++ (“+++” means <3 uM)”.

`CCc1cccc2c1CN(Cc1c(C)cc(C)cc1C)C2C(=O)NS(=O)(=O)c1cccc(N)c1` (stereo not drawn) [Compound 30, N-(3-aminophenyl)sulfonyl-4-ethyl-2-[(2,4,6-trimethylphenyl)methyl]isoindoline-1-carboxamide]: the EC30 result under setting [1] is “+++ (“+++” means <3 uM)”.

With `Cc1cccc(C)c1Cn1nc(-c2ccc(C(F)(F)F)cc2)cc1C(=O)NS(=O)(=O)c1ccccc1` [Compound 316, N-(benzenesulfonyl)-2-[(2,6-dimethylphenyl)methyl]-5-[4-(trifluoromethyl)phenyl]pyrazole-3-carboxamide], the EC30 result under setting [1] is on record as “+++ (“+++” means <3 uM)”.

With `Cc1cc(C(=O)NS(=O)(=O)c2cccc(N)n2)c(N2CC(C)CC2(C)C)nc1-c1ccc(F)cc1` (stereo not drawn) [Compound 763, N-[(6-amino-2-pyridyl)sulfonyl]-6-(4-fluorophenyl)-5-methyl-2-(2,2,4-trimethylpyrrolidin-1-yl)pyridine-3-carboxamide], the EC30 entry under setting [1] is “+++ (“+++” means <3 uM)”.

For `CCOc1nn(-c2ccc(C(=O)NS(=O)(=O)c3cccnc3N)c(N3C[C@@H](C)CC3(C)C)n2)cc1C` [Compound 2248, N-[(2-amino-3-pyridyl)sulfonyl]-6-(3-ethoxy-4-methyl-pyrazol-1-yl)-2-[(4S)-2,2,4-trimethylpyrrolidin-1-yl]pyridine-3-carboxamide], the EC30 under setting [2] is below 3 µM.

Turning to `CC(C)COc1cc(F)cc(-c2ccc(C(=O)NS(=O)(=O)c3cccc(N)n3)c(N3CC[C@H](C)C3(C)C)n2)c1` [Compound 547, N-[(6-amino-2-pyridyl)sulfonyl]-6-(3-fluoro-5-isobutoxy-phenyl)-2-[(3S)-2,2,3-trimethylpyrrolidin-1-yl]pyridine-3-carboxamide], the EC30 entry under setting [1] is given as “+++ (“+++” means <3 uM)”.

For `Cc1cc(C)c(CN2Cc3ccccc3C2(C)C(=O)NS(=O)(=O)c2nccnc2N)c(C)c1` (stereo not drawn) [Compound 480, N-(3-aminopyrazin-2-yl)sulfonyl-1-methyl-2-[(2,4,6-trimethylphenyl)methyl]isoindoline-1-carboxamide], the EC30 entry under setting [1] is “+++ (“+++” means <3 uM)”.

`CC(C)COc1ccc(-c2ccc(C(=O)NS(=O)(=O)c3cccc(N)n3)c(N3CC(C)CC3(C)C)n2)cc1` (stereo not drawn) [Compound 440, N-[(6-amino-2-pyridyl)sulfonyl]-6-(4-isobutoxyphenyl)-2-(2,2,4-trimethylpyrrolidin-1-yl)pyridine-3-carboxamide]: under setting [1], the EC30 result is given as “+++ (“+++” means <3 uM)”.

Turning to `CC(C)Oc1ccc(-c2ccc(C(=O)NS(=O)(=O)c3cccc(N)n3)c(N3[C@H](C)CC[C@@H]3C)n2)cn1` [Compound 337, N-[(6-amino-2-pyridyl)sulfonyl]-2-[(2S,5R)-2,5-dimethylpyrrolidin-1-yl]-6-(6-isopropoxy-3-pyridyl)pyridine-3-carboxamide], the EC30 result under setting [1] is on record as “+++ (“+++” means <3 uM)”.

Turning to `COc1ncccc1S(=O)(=O)NC(=O)c1cc2ccccc2n1Cc1c(C)cc(C)cc1C` [Compound 18, N-[(2-methoxy-3-pyridyl)sulfonyl]-1-[(2,4,6-trimethylphenyl)methyl]indole-2-carboxamide], the EC30 entry under setting [1] is “+++ (“+++” means <3 uM)”.

Turning to `COc1cccc(-c2ccc(C(=O)NS(=O)(=O)c3cccnc3N)c(N3C[C@@H](C)CC3(C)C)n2)c1OC` [Compound 2436, N-[(2-amino-3-pyridyl)sulfonyl]-6-(2,3-dimethoxyphenyl)-2-[(4S)-2,2,4-trimethylpyrrolidin-1-yl]pyridine-3-carboxamide], the EC30 under setting [2] was below 3 µM.

On to `CC(C)COc1cc(F)cc(-c2ccc(C(=O)NS(=O)(=O)c3cccc(N)n3)c(N3CC(C)C3)n2)c1` [Compound 2117, N-[(6-amino-2-pyridyl)sulfonyl]-6-(3-fluoro-5-isobutoxy-phenyl)-2-(3-methylazetidin-1-yl)pyridine-3-carboxamide], for which the EC30 under setting [2] is below 3 µM.

Turning to `CC(C)COc1cc(F)cc(-c2ccc(C(=O)NS(=O)(=O)c3cccc(N)n3)c(N3CC(F)(F)C3)n2)c1` [Compound 2155, N-[(6-amino-2-pyridyl)sulfonyl]-2-(3,3-difluoroazetidin-1-yl)-6-(3-fluoro-5-isobutoxy-phenyl)pyridine-3-carboxamide], the EC30 under setting [2] lay in the range of 3 to 10 µM.

Turning to `CCCCCCN1CCN(c2cccc(S(=O)(=O)NC(=O)c3cccnc3N3CC(C)CC3(C)C)n2)CC1` (stereo not drawn) [Compound 2423, N—[[6-(4-hexylpiperazin-1-yl)-2-pyridyl]sulfonyl]-2-(2,2,4-trimethylpyrrolidin-1-yl)pyridine-3-carboxamide], the EC30 under setting [2] was below 3 µM.

For the compound `COc1ccc(-c2ccc(C(=O)NS(=O)(=O)c3ccc[nH]c3=O)c(N3C[C@@H](C)CC3(C)C)n2)cc1F` [Compound 2219, 6-(3-fluoro-4-methoxy-phenyl)-N-[(2-oxo-1H-pyridin-3-yl)sulfonyl]-2-[(4S)-2,2,4-trimethylpyrrolidin-1-yl]pyridine-3-carboxamide], under setting [2], the EC30 is 3 to 10 µM.

As for `CCOc1cc(F)cc(-c2ccc(C(=O)NS(=O)(=O)c3cccc(N)n3)c(N3[C@H](C)CC[C@@H]3C)n2)c1` [Compound 551, N-[(6-amino-2-pyridyl)sulfonyl]-2-[(2R,5S)-2,5-dimethylpyrrolidin-1-yl]-6-(3-ethoxy-5-fluoro-phenyl)pyridine-3-carboxamide], the EC30 result under setting [1] is “+++ (“+++” means <3 uM)”.

For `CCOc1ccc(-c2cnc(N3CC(C)CC3(C)C)c(C(=O)NS(=O)(=O)c3cccc(N)n3)c2)cn1` (stereo not drawn) [Compound 2384, N-[(6-amino-2-pyridyl)sulfonyl]-5-(6-ethoxy-3-pyridyl)-2-(2,2,4-trimethylpyrrolidin-1-yl)pyridine-3-carboxamide], the EC30 under setting [2] was below 3 µM.

Consider `Cc1cc(C)c(Oc2nc(C(C)(C)C)ccc2C(=O)N[S@](=N)(=O)c2cccc(N)c2)c(C)c1` (single isomer, unassigned) [Compound 53, N-[(3-aminophenyl)sulfonimidoyl]-6-tert-butyl-2-(2,4,6-trimethylphenoxy)pyridine-3-carboxamide], for which, under setting [1], the EC30 result is “+++ (“+++” means <3 uM)”.

Consider `CC1CN(c2ncccc2C(=O)NS(=O)(=O)c2cccc(Oc3ccc4nonc4c3)n2)C(C)(C)C1` (stereo not drawn) [Compound 2727], for which the concentration for an effect of 30% (EC30) under setting [2] is below 3 µM.

Turning to `Cc1cccc(Oc2cccc(S(=O)(=O)NC(=O)c3cccnc3N3CC(C)CC3(C)C)n2)c1` (stereo not drawn) [Compound 2320, N—[[6-(3-methylphenoxy)-2-pyridyl]sulfonyl]-2-(2,2,4-trimethylpyrrolidin-1-yl)pyridine-3-carboxamide], the EC30 under setting [2] was below 3 µM.

Take `COc1ncc(-c2ccc(C(=O)NS(=O)(=O)c3cccc(N)n3)c(Oc3c(C)cc(C)cc3C)n2)cn1` [Compound 449, N-[(6-amino-2-pyridyl)sulfonyl]-6-(2-methoxypyrimidin-5-yl)-2-(2,4,6-trimethylphenoxy)pyridine-3-carboxamide]: the EC30 result under setting [1] is on record as “+ (“+” means greater than 10 uM)”.

In general, EC30 refers to the concentration at which the effect reaches the 30% level.
